Experimental data from patent publication US9399635B2, “Pyrazole derivative” (GREEN TECH CO., LTD., priority 2011, dated 2016).
Like-named read-outs stand apart in the source and are kept apart here.

Tests used:
[1] = molecular target: recombinant three-repeat microtubule-binding domain (3R-MBD) of tau protein (Homo sapiens, UniProt P10636); test: Determination of tau aggregation inhibitory activity (heparin-induced, thioflavin T fluorescence; electron microscope); format: biochemical
Protocol: Pharmacological Test Example 1: Determination of Tau Aggregation Inhibitory Activity
A recombinant three-repeat microtubule-binding domain (3R-MBD) of tau protein was expressed in E. coli and was purified and used for the experiment. The purified tau solution was diluted with a 50 mM Tris-HCl buffer (pH 7.6) to a final concentration of 10 μM. The test compounds were prepared using dimethylsulfoxide (DMSO) at 20-fold of their final concentrations and added to the plate so that the DMSO concentration would be 5%. Heparin was added to the plate so that the final concentration would be 10 μM and the plate was left to stand at 37° C. for 16 hours. Thioflavin T was added to the plate so that the concentration would be 10 μM and the fluorescence intensity was measured with a fluorescence plate reader (PerkinElmer, Inc.) (excitation wavelength: 440 nm; emission wavelength: 480 nm).
(§1) The final concentration of each compound at the time of measurement was set at 0.1, 0.3, 1, 3, and 10 μM. The sample to which only DMSO was added was used as a negative control and its fluorescence intensity was taken as 0% inhibitory activity.
The samples were placed on a grid and washed with distilled water. A 1 mM phosphotungstic acid aqueous solution was added to the samples. The samples were washed, dried overnight, and observed.

Aβ 1-42 = molecular target: T1, Aβ 1-42 (Homo sapiens, UniProt P05067); test: Determination of Aβ aggregation inhibitory activity (thioflavin T fluorescence); format: biochemical; details: Aβ 1-42, 37° C. for 24 hours, thioflavin T; read-out: IC50 (μM) Test example 3 (Aβ aggregation inhibitory activity)
T1 construct: Aβ 1-42 (Peptide Institute, Inc.) was dissolved in 0.3% ammonia water; purchased Peptide Institute, Inc
T1 sequence (P05067 672-713): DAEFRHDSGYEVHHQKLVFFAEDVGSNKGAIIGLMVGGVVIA
Protocol: Pharmacological test example 3: Determination of Aβ aggregation inhibitory activity
Aβ 1-42 (Peptide Institute, Inc.) was dissolved in 0.3% ammonia water so that the concentration would be 0.5 mM and then diluted with PBS to 20 μM. The test compounds were prepared using DMSO at 100-fold of their final concentrations and adjusted so that the DMSO concentration would be 2%. The Aβ solution and each of the test compound solutions were mixed at an equivalent ratio and the mixtures were incubated at 37° C. for 24 hours. To each of the mixtures, an equal volume of a thioflavin T solution adjusted with a 100 mM Tris-glycine buffer (pH 8.5) to 6 μM was added. The fluorescence intensity was measured with a fluorescence plate reader (excitation wavelength: 440 nm; emission wavelength: 480 nm).
as §1

[2] = Evaluation of in vivo pharmacokinetics (blood and brain concentrations, LC-MS/MS); details: SD rats
Protocol: Pharmacological test example 4: Evaluation of in vivo pharmacokinetics
To SD rats (male, 7 weeks old), the test compound was orally administered (p. o.) at an amount of 50 mg/kg bw or intravenously administered (i.v.) at an amount of 1 mg/kg bw and the concentrations in the blood and brain were measured up to 3 hours. The administration vehicle was an 80% PEG 400 aqueous solution. The blood was collected under isoflurane inhalational anesthesia and the brain was harvested after the rats were sacrificed. The plasma was separated from the blood. The brain was homogenized after addition of a three-fold volume of PBS and then methanol was added thereto. Thus the prepared test samples were subjected to measurement. The measurement was performed by LC-MS/MS (Applied Biosystems and Waters).
The blood concentration changes of the compounds of Example 2 and Example 2 (2) ((1E,6E)-1-(1H-indol-6-yl)-7-[2-methoxy-4-(2-pyridylmethoxy)phenyl]hepta-1,6-diene-3,5-dione) after oral administration (p.o.) thereof are shown in FIG. 2. The brain concentration changes of the compounds after intravenous administration (i.v.) and oral administration (p.o.) thereof are shown in Table 2.

[3] = test system: sarcosyl-insoluble tau in the brain of tau N279K Tg mice; test: Tau aggregation inhibitory activity in mice with oral administration (brain sarcosyl-insoluble tau ELISA); format: in vivo; details: oral 10, 20, or 40 mg/kg bw/day, four weeks (FIG. 4)
Protocol: Pharmacological test example 6: Determination of tau aggregation inhibitory activity in mice with oral administration
To tau N279K Tg mice (male, 8 months old, n=8), the compound of Example 2 was orally administered and the tau concentration in the brain was measured. The administration vehicle was an 80% PEG 400 aqueous solution. The dose volume was 10 mL/kg bw/day and the dose was adjusted to be 10, 20, or 40 mg/kg bw/day. To Vehicle group, 10 mL/kg bw/day of an 80% PEG 400 aqueous solution was administered. To Positive control compound group, methylene blue (MB) adjusted to be 40 mg/kg bw/day was administered. Administration was performed with an oral feeding tube (Fuchigami Kikai Company) by gavage and continued for four weeks. After termination of the administration, the mice were sacrificed under pentobarbital anesthesia and the brain was harvested. The brain was homogenized after addition of a 5-fold volume of a high salt buffer (0.8 M NaCl, 1 mM EGTA, 10 mM Tris-HCl, 10% sucrose). […] An amount of 100 μL of a reaction stop solution was added to stop the chromogenic reaction and the absorbance was measured at 450 nm with a microplate reader. The tau concentration was determined from the standard curve produced from the measured values of the standard curve dilution series.

Sequence of recombinant three-repeat microtubule-binding domain (3R-MBD) of tau protein (P10636 186-279 isoform P10636-2 limits assumed): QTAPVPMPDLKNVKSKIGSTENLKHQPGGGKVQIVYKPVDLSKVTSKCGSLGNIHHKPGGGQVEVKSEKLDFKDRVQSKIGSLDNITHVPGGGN

With `COc1cc(OCc2ccccn2)ccc1/C=C/c1cc(/C=C/c2ccc3cc[nH]c3c2)[nH]n1` [Example 2, 3-[(1E)-2-(1H-indol-6-yl)ethenyl]-5-[(1E)-2-[2-methoxy-4-(2-pyridylmethoxy)phenyl]ethenyl]-1H-pyrazole] the “tau aggregate formation observed with an electron microscope” value ([1]; 0.1 μM and 1 μM, compared with DMSO only (FIG. 1)) was “less tau aggregate formation”, the IC50 ([1]; 3R-MBD tau 10 μM, heparin 10 μM, 37° C. for 16 hours, thioflavin T, read-out: IC50 (μM) Test example 1 (tau aggregation inhibitory activity)) was 0.92 µM and the IC50 (Aβ 1-42) was 1.5 µM. The “blood and brain concentrations compared with the compound of Example 2 (2)” value ([2]; p.o. 50 mg/kg bw or i.v. 1 mg/kg bw (FIG. 2, Table 2)) was “higher blood and brain concentrations”, the concentration at 5 min ([2]; male, rat, intravenous 1 mg/kg bw, 5 min, brain, read-out: brain concentration i.v. 5 min) was 48.7 ng/mL and the concentration at 180 min ([2]; male, rat, intravenous 1 mg/kg bw, brain, read-out: brain concentration i.v. 180 min) was 17.5 ng/mL. The concentration at 60 min ([2]; male, rat, oral 50 mg/kg bw, 60 min, brain, read-out: brain concentration p.o. 60 min) was 8.54 ± 2.93 ng/mL, the concentration at 180 min ([2]; male, rat, oral 50 mg/kg bw, brain, read-out: brain concentration p.o. 180 min) was 68.9 ± 39.4 ng/mL and the “amount of the sarcosyl-insoluble tau in the brain” value [3] was “decreased in a dose-dependent manner”.
